Results from ChEMBL document CHEMBL1201862, “PubChem BioAssay data set” (2004).
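Where inhibition never reached the appropriate level, the endpoint shown equals the highest concentration tested. Otherwise, values were interpolated linearly from a five-concentration, 48-hour dose response in 96-well plates. GI50 is the concentration that inhibits growth by half.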 Active and inactive are the calls of the source. Cut-off read from the data, not from the text of the source: active = GI50 up to about 1.1 µM and inactive = higher.

Assays:
Experiment in all cases: NCI anticancer screen, dose series, 48 h
IGROV-1 = tested on: IGROV-1
BT-549 = tested on: BT-549
KM-20L2 = tested on: KM-20L2
PC-3 = tested on: PC-3
ACHN = tested on: ACHN
SK-MEL-2 = tested on: SK-MEL-2
786-0 = tested on: 786-0
TK-10 = tested on: TK-10
A498 = tested on: A498
NCI/ADR-RES = tested on: NCI/ADR-RES
SF-268 = tested on: SF-268
MDA-N = tested on: MDA-N
HL-60 = tested on: HL-60
HOP-62 = tested on: HOP-62
M14 = tested on: M14
MDA-MB-231 = tested on: MDA-MB-231
LXFL 529 = tested on: LXFL 529
HOP-92 = tested on: HOP-92
OVCAR-4 = tested on: OVCAR-4
DMS-114 = tested on: DMS-114

SMILES | GI50 (IGROV-1) | GI50 (BT-549) | GI50 (KM-20L2) | GI50 (PC-3) | GI50 (ACHN) | GI50 (SK-MEL-2) | GI50 (786-0) | GI50 (TK-10) | GI50 (A498) | GI50 (NCI/ADR-RES) | GI50 (SF-268) | GI50 (MDA-N) | GI50 (HL-60) | GI50 (HOP-62) | GI50 (M14) | GI50 (MDA-MB-231) | GI50 (LXFL 529) | GI50 (HOP-92) | GI50 (OVCAR-4) | GI50 (DMS-114)
C=C(CN(C)C)C(=O)c1ccc(Oc2ccccc2)cc1 | 14.9 µM (inactive) | 6.18 µM (inactive) | 12.2 µM (inactive) | 3.98 µM (inactive) | 1.8 µM (inactive) | 9.2 µM (inactive) | 2.15 µM (inactive) | 5.86 µM (inactive) | 17.7 µM (inactive) | 6.75 µM (inactive) | 14 µM (inactive) | 3.02 µM (inactive) | 0.695 µM (active) | 19.7 µM (inactive) | 1.76 µM (inactive) | 5.81 µM (inactive) | 2.2 µM (inactive) | 2.18 µM (inactive) | 6.19 µM (inactive) | 
CC(C)(c1ccc(C=O)o1)c1ccc(C(C)(C)c2ccc(C=O)o2)o1 | > 100 µM (inactive) |  | > 100 µM (inactive) |  | > 100 µM (inactive) | > 100 µM (inactive) | > 100 µM (inactive) | > 100 µM (inactive) | > 100 µM (inactive) |  | > 100 µM (inactive) |  | > 100 µM (inactive) | > 100 µM (inactive) |  |  | > 100 µM (inactive) | 69.5 µM (inactive) | > 100 µM (inactive) | 
CN(C)Cc1cc(C(=O)/C=C/c2ccc(/C=C/C(=O)c3cc(CN(C)C)c(O)c(CN(C)C)c3)cc2)cc(CN(C)C)c1O | 35.2 µM (inactive) | 18.6 µM (inactive) |  | 15.1 µM (inactive) | 23.4 µM (inactive) | 20.2 µM (inactive) | 19.6 µM (inactive) | 36.8 µM (inactive) | 57.9 µM (inactive) | > 100 µM (inactive) | 27.5 µM (inactive) | > 10 µM (inactive) | 14.1 µM (inactive) | 26.8 µM (inactive) | 17 µM (inactive) | 20.3 µM (inactive) |  | 24.2 µM (inactive) | 50.6 µM (inactive) | 
CN1CCc2c(sc3ncn(C)c(=N)c23)C1 | > 100 µM (inactive) | > 100 µM (inactive) |  | > 100 µM (inactive) | > 100 µM (inactive) | > 100 µM (inactive) | > 100 µM (inactive) | > 100 µM (inactive) | > 100 µM (inactive) | > 100 µM (inactive) | > 100 µM (inactive) | > 100 µM (inactive) | > 100 µM (inactive) | > 100 µM (inactive) | > 100 µM (inactive) | > 100 µM (inactive) |  | > 100 µM (inactive) | > 100 µM (inactive) | 
CCOP1(=O)CC(C)=C(Cl)C(O)C1 (stereo unspecified) | > 100 µM (inactive) | > 100 µM (inactive) |  | > 100 µM (inactive) | > 100 µM (inactive) | > 100 µM (inactive) | > 100 µM (inactive) | > 100 µM (inactive) | > 100 µM (inactive) | > 100 µM (inactive) | > 100 µM (inactive) | > 100 µM (inactive) | > 100 µM (inactive) | > 100 µM (inactive) | > 100 µM (inactive) | > 100 µM (inactive) |  | > 100 µM (inactive) | > 100 µM (inactive) | 
COc1cc(/C=C(\C#N)C(=O)c2ccccc2)ccc1OCc1ccccc1 | > 100 µM (inactive) |  | > 100 µM (inactive) |  | > 100 µM (inactive) | > 100 µM (inactive) | > 100 µM (inactive) | > 100 µM (inactive) |  |  |  |  | > 100 µM (inactive) | > 100 µM (inactive) | > 100 µM (inactive) |  |  |  | > 100 µM (inactive) | > 100 µM (inactive)
COC(=O)C1=C(OC(=O)/C=C/c2ccccc2)C(C(=O)OC)[C@@]2(O)[C@@H](C(=O)OC)[C@H](C)C[C@@H]1[C@@H]2C(=O)OC (stereo partly specified) | 25 µM (inactive) | 15.4 µM (inactive) |  | 25.5 µM (inactive) | 22.8 µM (inactive) | 24.9 µM (inactive) | 17.1 µM (inactive) | 34.4 µM (inactive) | 13.3 µM (inactive) | 16.7 µM (inactive) | 24.2 µM (inactive) | 19.7 µM (inactive) | 39.2 µM (inactive) | 19 µM (inactive) | 25.5 µM (inactive) | 14.8 µM (inactive) |  | 20.4 µM (inactive) | 18.2 µM (inactive) | 
CCOC(=O)C1=NC(c2ccccc2)(c2ccccc2)OC1=C(Cl)Cl | > 100 µM (inactive) |  | 49.3 µM (inactive) |  | 50.4 µM (inactive) |  | > 100 µM (inactive) | > 100 µM (inactive) | > 100 µM (inactive) |  | > 100 µM (inactive) |  | 11.9 µM (inactive) | > 100 µM (inactive) | 85.9 µM (inactive) |  | 65.5 µM (inactive) | 35.4 µM (inactive) | 63 µM (inactive) | 
OCC1OC(n2cnc3c(SCc4ccccc4)ncnc32)C(O)C1O (stereo unspecified) | > 89.1 µM (inactive) | 16.6 µM (inactive) |  | 4.94 µM (inactive) | 4.24 µM (inactive) | 96.8 µM (inactive) | 27.5 µM (inactive) | > 21.8 µM (inactive) | 2.98 µM (inactive) | 10.2 µM (inactive) | 21.2 µM (inactive) | > 100 µM (inactive) | 1.21 µM (inactive) | > 100 µM (inactive) | 99.3 µM (inactive) | 5.48 µM (inactive) |  | 4.75 µM (inactive) | 11.8 µM (inactive) | 
